Assay results from ChEMBL document CHEMBL1201862, “PubChem BioAssay data set” (2004).
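Test compounds were applied to cells in 96-well plates for 48 hours at 5 doses. Here, GI50 denotes the concentration required for 50% inhibition of growth.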 Activity calls are given as the source filed them. Rule as the data show it: active = GI50 up to about 1.1 µM and inactive = higher.

Legend:
Test in all cases: DTP human tumour cell line panel, 48 h
ACHN = system: ACHN
KM12 = system: KM12
EKVX = system: EKVX
A549 = system: A549
NCI/ADR-RES = system: NCI/ADR-RES
COLO 205 = system: COLO 205
DU-145 = system: DU-145
NCI-H226 = system: NCI-H226
MDA-N = system: MDA-N
SF-268 = system: SF-268
SK-MEL-5 = system: SK-MEL-5
MCF7 = system: MCF7
HCT-15 = system: HCT-15
NCI-H23 = system: NCI-H23
Malme-3M = system: Malme-3M
SF-539 = system: SF-539
HT-29 = system: HT-29
T47D = system: T47D
786-0 = system: 786-0
NCI-H460 = system: NCI-H460

| SMILES | GI50 (ACHN) | GI50 (KM12) | GI50 (EKVX) | GI50 (A549) | GI50 (NCI/ADR-RES) | GI50 (COLO 205) | GI50 (DU-145) | GI50 (NCI-H226) | GI50 (MDA-N) | GI50 (SF-268) | GI50 (SK-MEL-5) | GI50 (MCF7) | GI50 (HCT-15) | GI50 (NCI-H23) | GI50 (Malme-3M) | GI50 (SF-539) | GI50 (HT-29) | GI50 (T47D) | GI50 (786-0) | GI50 (NCI-H460) |
| --- | --- | --- | --- | --- | --- | --- | --- | --- | --- | --- | --- | --- | --- | --- | --- | --- | --- | --- | --- | --- |
| OC[C@H]1N[C@H](CO)[C@@H](O)[C@H]1O | > 100 µM (inactive) | > 100 µM (inactive) | > 100 µM (inactive) | > 100 µM (inactive) | > 100 µM (inactive) | > 100 µM (inactive) | > 100 µM (inactive) | > 100 µM (inactive) | > 10 µM (inactive) | > 100 µM (inactive) | > 100 µM (inactive) | > 100 µM (inactive) | > 100 µM | > 100 µM (inactive) | > 100 µM (inactive) | > 100 µM (inactive) | > 100 µM (inactive) | > 100 µM (inactive) | > 100 µM (inactive) | – |
| COc1cc2nc3c(=C(C#N)C#N)c4ccccc4n3c(=O)c2cc1OC | > 100 µM (inactive) | > 100 µM (inactive) | > 100 µM (inactive) | > 100 µM (inactive) | > 100 µM (inactive) | > 100 µM (inactive) | > 100 µM (inactive) | > 100 µM (inactive) | > 100 µM (inactive) | 75.7 µM (inactive) | > 100 µM (inactive) | > 100 µM (inactive) | > 100 µM | > 100 µM (inactive) | – | > 100 µM (inactive) | > 100 µM (inactive) | > 100 µM (inactive) | > 100 µM (inactive) | > 100 µM (inactive) |
| CCCN(C(=O)c1ccccc1)C(C#N)c1ccc(C(C#N)N(CCC)C(=O)c2ccccc2)cc1 (centres undefined) | 84.1 µM (inactive) | > 100 µM (inactive) | 58.3 µM (inactive) | 56.6 µM (inactive) | 38.5 µM (inactive) | > 100 µM (inactive) | 77.6 µM (inactive) | 20 µM (inactive) | > 100 µM (inactive) | 85.9 µM (inactive) | 92.5 µM (inactive) | > 100 µM (inactive) | > 100 µM | > 100 µM (inactive) | > 100 µM (inactive) | 28.5 µM (inactive) | 21.6 µM (inactive) | 11.2 µM (inactive) | 38.1 µM (inactive) | – |
| CC(C)=CCC[C@@H](C)/C=C/C=C(\C)C(=O)CC[C@@H]1CC[N@+]2(C)CCCC[C@H]12 | > 100 µM (inactive) | > 100 µM (inactive) | > 100 µM (inactive) | > 100 µM (inactive) | > 100 µM (inactive) | 81.3 µM (inactive) | > 100 µM (inactive) | 4.47 µM (inactive) | > 100 µM (inactive) | 71.1 µM (inactive) | > 100 µM (inactive) | > 100 µM (inactive) | > 100 µM | > 100 µM (inactive) | 79.8 µM (inactive) | > 100 µM (inactive) | – | > 100 µM (inactive) | > 100 µM (inactive) | > 100 µM (inactive) |
| Cc1nc(N)c(N2CCN(C#N)CC2)c(O)n1 | > 100 µM (inactive) | > 100 µM (inactive) | > 100 µM (inactive) | > 100 µM (inactive) | > 100 µM (inactive) | > 100 µM (inactive) | > 100 µM (inactive) | > 100 µM (inactive) | > 100 µM (inactive) | > 100 µM (inactive) | – | > 100 µM (inactive) | > 100 µM | > 100 µM (inactive) | > 100 µM (inactive) | > 100 µM (inactive) | > 100 µM (inactive) | > 100 µM (inactive) | > 100 µM (inactive) | > 100 µM (inactive) |
| COc1cc2c(cc1OC)C(=O)/C(=C/c1cc(C)cc(C)c1)C2 | 12.9 µM (inactive) | < 0.0203 µM (active) | 1.29 µM (inactive) | 0.0713 µM (active) | 0.065 µM (active) | 0.0735 µM (active) | 0.198 µM (active) | 0.172 µM (active) | < 0.0156 µM (active) | 12.9 µM (inactive) | 0.0239 µM (active) | 0.385 µM (active) | 0.0296 µM | 0.313 µM (active) | – | 0.0871 µM (active) | 0.0385 µM (active) | 0.883 µM (active) | 0.0982 µM (active) | 0.06 µM (active) |
| N#CC(C#N)=C1C(=O)NC(N)=C1C#N | > 100 µM (inactive) | > 100 µM (inactive) | > 100 µM (inactive) | > 100 µM (inactive) | > 100 µM (inactive) | > 100 µM (inactive) | > 100 µM (inactive) | > 100 µM (inactive) | > 100 µM (inactive) | > 100 µM (inactive) | > 100 µM (inactive) | > 100 µM (inactive) | > 100 µM | > 100 µM (inactive) | > 100 µM (inactive) | – | > 100 µM (inactive) | > 100 µM (inactive) | > 100 µM (inactive) | > 100 µM (inactive) |
| CN(N)c1nc(N)c(C#N)c(C#N)c1C#N | > 10 µM (inactive) | > 10 µM (inactive) | – | > 10 µM (inactive) | > 10 µM (inactive) | > 10 µM (inactive) | > 10 µM (inactive) | – | > 10 µM (inactive) | > 10 µM (inactive) | > 10 µM (inactive) | > 10 µM (inactive) | > 10 µM | > 10 µM (inactive) | > 10 µM (inactive) | > 10 µM (inactive) | > 10 µM (inactive) | > 10 µM (inactive) | > 10 µM (inactive) | – |
| Oc1ccc2c(c1)CCc1c-2n(CCN2CCOCC2)c2ccc(O)cc12 | 16.1 µM (inactive) | 20.8 µM (inactive) | 38.8 µM (inactive) | – | 21 µM (inactive) | 56.2 µM (inactive) | 33 µM (inactive) | 22.8 µM (inactive) | 45.3 µM (inactive) | 31.8 µM (inactive) | 15.7 µM (inactive) | 23.5 µM (inactive) | 36.1 µM | 27.7 µM (inactive) | 25.3 µM (inactive) | 27.9 µM (inactive) | – | 31.1 µM (inactive) | 43.5 µM (inactive) | 33.2 µM (inactive) |
| O=S(=O)(O)c1ccc2cccc(/N=N\c3c(O)ccc4ccccc34)c2c1 | > 100 µM (inactive) | > 100 µM (inactive) | > 100 µM (inactive) | > 100 µM (inactive) | > 100 µM (inactive) | > 100 µM (inactive) | > 100 µM (inactive) | > 100 µM (inactive) | > 100 µM (inactive) | > 100 µM (inactive) | > 100 µM (inactive) | > 100 µM (inactive) | > 100 µM | > 100 µM (inactive) | > 100 µM (inactive) | > 100 µM (inactive) | – | > 100 µM (inactive) | > 100 µM (inactive) | > 100 µM (inactive) |
| COC(=O)c1ccccc1NC(=S)NN(C)C | > 100 µM (inactive) | > 100 µM (inactive) | > 100 µM (inactive) | > 100 µM (inactive) | > 100 µM (inactive) | > 100 µM (inactive) | > 100 µM (inactive) | > 100 µM (inactive) | > 100 µM (inactive) | – | – | > 100 µM (inactive) | > 100 µM | > 100 µM (inactive) | > 100 µM (inactive) | > 100 µM (inactive) | – | > 100 µM (inactive) | > 100 µM (inactive) | – |
| CC1(C)OC[C@@H](/C=C\CCO[Si](c2ccccc2)(c2ccccc2)C(C)(C)C)N1C(=O)c1ccccc1 | 12.3 µM (inactive) | 7.96 µM (inactive) | 5.75 µM (inactive) | 3.59 µM (inactive) | 9.14 µM (inactive) | 8.32 µM (inactive) | 18.8 µM (inactive) | 7.94 µM (inactive) | 15.8 µM (inactive) | 13.9 µM (inactive) | 2.51 µM (inactive) | 6.32 µM (inactive) | 5.13 µM | 4.61 µM (inactive) | – | 18.3 µM (inactive) | 4.14 µM (inactive) | 4.06 µM (inactive) | 11.6 µM (inactive) | 3.79 µM (inactive) |
| Cc1nc(Nc2ccccc2Cl)sc1C(=O)CC(=O)C(=O)Nc1c(Cl)cccc1Cl | 45 µM (inactive) | 25.4 µM (inactive) | 17.9 µM (inactive) | 24.9 µM (inactive) | 22.3 µM (inactive) | 18.6 µM (inactive) | 27 µM (inactive) | 17.5 µM (inactive) | 40 µM (inactive) | 35.6 µM (inactive) | 31.7 µM (inactive) | 28.2 µM (inactive) | 33.3 µM | 50.1 µM (inactive) | – | 26.9 µM (inactive) | 25.4 µM (inactive) | 22.8 µM (inactive) | 24.3 µM (inactive) | 34.5 µM (inactive) |
| CC(C)=C1C2CC3(C)CCC2(C)CCC13.CC1=CCC2C3(C)CCC2(C(C)C)C1C3 (centres undefined) | 20.3 µM (inactive) | 19.5 µM (inactive) | 21.6 µM (inactive) | 19.7 µM (inactive) | 18.4 µM (inactive) | 26.7 µM (inactive) | 29.4 µM (inactive) | – | 25.5 µM (inactive) | 19.3 µM (inactive) | 10 µM (inactive) | 19 µM (inactive) | 16.9 µM | 38.3 µM (inactive) | 43.8 µM (inactive) | 27.4 µM (inactive) | 16.2 µM (inactive) | 36.7 µM (inactive) | 21.5 µM (inactive) | 17.2 µM (inactive) |
| O=C1/C(=C/c2ccc([N+](=O)[O-])cc2)C(=O)N(c2ccccc2)C1c1ccccc1 (centres undefined) | > 10 µM (inactive) | > 10 µM (inactive) | > 10 µM (inactive) | > 10 µM (inactive) | > 10 µM (inactive) | > 10 µM (inactive) | > 10 µM (inactive) | > 10 µM (inactive) | > 10 µM (inactive) | > 10 µM (inactive) | > 10 µM (inactive) | > 10 µM (inactive) | > 10 µM | > 10 µM (inactive) | – | > 10 µM (inactive) | > 10 µM (inactive) | > 10 µM (inactive) | > 10 µM (inactive) | > 10 µM (inactive) |
